According to patent US20240417398A1, “TETRAHYDRONAPTHYRIDINE AND RELATED ANALOGS FOR INHIBITING YAP/TAZ-TEAD” (SpringWorks Therapeutics, Inc., priority 2023, published 2024):

These compounds were tested on YAP/TAZ-TEAD transcription (assay: Reporter gene assay for measuring the inhibition of YAP/TAZ-TEAD transcription (TEAD-responsive element luciferase reporter, Hek293T cells)). Conditions: Homo sapiens, HEK-293T, 24 h, Hek293T cells transfected with TEAD-responsive element luciferase reporter, 24 hours incubation.
Type: cell-based
Experimental: Hek293T cells were cultured in DMEM supplemented with 10% fetal bovine serum, Sodium pyruvate, Sodium bicarbonate, L-glutamine. The cells were harvested and transiently transfected with TEAD-responsive element luciferase reporter. Transfected cells were plated in 384-well plate containing pre-diluted compounds. After 24 hours incubation at 37° C./5% CO2, assay plates were cooled to room temperature and levelled to an equal volume per well, prior to the addition of 25 uL luciferase substrate SteadyLite (Perkin Elmer)/well. The plate was shaken for 10 min at 600 rpm, centrifuged for 1 min at 500 rpm and measured with an Envision reader (PerkinElmer). The amount of relative light units produced by the TEAD reporter was used to calculate the percentage of inhibition.
The percent of reporter inhibition was calculated in the presence of a positive control inhibitor (100% inhibition) versus a condition with the presence of the vehicle basal activity of the reporter (0% inhibition). The ability of a test compound to inhibit this activity was determined as: Percentage inhibition=[1-((RLU determined in the presence of vehicle−RLU determined for sample with test compound present) divided by (RLU determined in the presence of vehicle−RLU determined for sample with positive control inhibitor))]*100.
The activities of example compounds tested are depicted in Table 3. The activity ranges A, B and C refer to IC50 values in the reporter gene assay as follows: “A”: IC50<1 μM; “B”: 1 μM≤IC50 10 μM and “C”: IC50>10 μM; NT=not tested.

First: Cn1cncc1C(=O)NCC1Cc2ncccc2N(c2ccc(C(F)(F)F)cc2)C1 (stereo not drawn) [Cpd. No. 30, 1-methyl-N-((1-(4-(trifluoromethyl)phenyl)-1,2,3,4-tetrahydro-1,5-naphthyridin-3-yl)methyl)-1H-imidazole-5-carboxamide]
Second: CNC(=O)NCC1Cc2ncccc2N(c2ccc(C(F)(F)F)cc2)C1 (stereo not drawn) [Cpd. No. 43, 1-methyl-3-((1-(4-(trifluoromethyl)phenyl)-1,2,3,4-tetrahydro-1,5-naphthyridin-3-yl)methyl)urea]
The IC50 of the first is higher: greater than 10000 nM for the first, less than 1000 nM for the second. The second is the more potent here.

Going from `O=C1CCCN1CC1Cc2ncccc2N(c2ccc(C(F)(F)F)cc2)C1` (stereo not drawn) [Cpd. No. 31, 1-((1-(4-(trifluoromethyl)phenyl)-1,2,3,4-tetrahydro-1,5-naphthyridin-3-yl)methyl)pyrrolidin-2-one] to `CC(C)C(=O)NCC1Cc2ncccc2N(c2ccc(C(F)(F)F)cc2)C1` (stereo not drawn) [Cpd. No. 39, N-((1-(4-(trifluoromethyl)phenyl)-1,2,3,4-tetrahydro-1,5-naphthyridin-3-yl)methyl)isobutyramide], the IC50 falls from greater than 10000 nM to less than 1000 nM.

Compared with `CC(=O)NCc1cc2c(c(-c3ccc(C(F)(F)F)cc3)c1)CNCC2` [Cpd. No. 32, N-((8-(4-(trifluoromethyl)phenyl)-1,2,3,4-tetrahydroisoquinolin-6-yl)methyl)acetamide], `C=CC(=O)NCc1cc2c(c(-c3ccc(C(F)(F)F)cc3)c1)CNCC2` [Cpd. No. 33, N-((8-(4-(trifluoromethyl)phenyl)-1,2,3,4-tetrahydroisoquinolin-6-yl)methyl)acrylamide] is lower in IC50: greater than 10000 nM for the first, less than 1000 nM for the second.

`[2H]C([2H])([2H])C(=O)NCC1Cc2ncccc2N(c2ccc(C(F)(F)F)cc2)C1` (stereo not drawn) [Cpd. No. 34, N-((1-(4-(trifluoromethyl)phenyl)-1,2,3,4-tetrahydro-1,5-naphthyridin-3-yl)methyl)acetamide-2,2,2-d3] and `O=C(CC(F)(F)F)NCC1Cc2ncccc2N(c2ccc(C(F)(F)F)cc2)C1` (stereo not drawn) [Cpd. No. 38, 3,3,3-trifluoro-N-((1-(4-(trifluoromethyl)phenyl)-1,2,3,4-tetrahydro-1,5-naphthyridin-3-yl)methyl)propanamide] cannot be ordered by IC50: less than 1000 nM for the first, less than 1000 nM for the second.

`O=C(Cc1ccccc1)NCC1Cc2ncccc2N(c2ccc(C(F)(F)F)cc2)C1` (stereo not drawn) [Cpd. No. 35, 2-phenyl-N-((1-(4-(trifluoromethyl)phenyl)-1,2,3,4-tetrahydro-1,5-naphthyridin-3-yl)methyl)acetamide] and `O=C(NCC1Cc2ncccc2N(c2ccc(C(F)(F)F)cc2)C1)c1ccccc1` (stereo not drawn) [Cpd. No. 40, N-((1-(4-(trifluoromethyl)phenyl)-1,2,3,4-tetrahydro-1,5-naphthyridin-3-yl)methyl)benzamide] fall in the same range of IC50: 1000 to 10000 nM for the first, 1000 to 10000 nM for the second.

`C=CC(=O)N(CC(=O)O)Cc1cc2c(c(-c3ccc(C(F)(F)F)cc3)c1)CNCC2` [Cpd. No. 36, N-acryloyl-N-((8-(4-(trifluoromethyl)phenyl)-1,2,3,4-tetrahydroisoquinolin-6-yl)methyl)glycine] and `CC(=O)N(CC(=O)O)Cc1cc2c(c(-c3ccc(C(F)(F)F)cc3)c1)CNCC2` [Cpd. No. 37, N-acetyl-N-((8-(4-(trifluoromethyl)phenyl)-1,2,3,4-tetrahydroisoquinolin-6-yl)methyl)glycine] cannot be ordered by IC50: greater than 10000 nM for the first, greater than 10000 nM for the second.

`C=CC(=O)N1CCN(C2Cc3ccccc3N(c3ccc(C(F)(F)F)cc3)C2)CC1` (stereo not drawn) [Cpd. No. 41, 1-(4-(1-(4-(trifluoromethyl)phenyl)-1,2,3,4-tetrahydroquinolin-3-yl)piperazin-1-yl)prop-2-en-1-one] and `CC(=O)NCC1Cc2nc(C(F)(F)F)ccc2N(c2ccc(C(F)(F)F)cc2)C1` (stereo not drawn) [Cpd. No. 42, N-((6-(trifluoromethyl)-1-(4-(trifluoromethyl)phenyl)-1,2,3,4-tetrahydro-1,5-naphthyridin-3-yl)methyl)acetamide] cannot be ordered by IC50: less than 1000 nM for the first, less than 1000 nM for the second.

With `CC(=O)NCC1Cc2ncc(Br)cc2N(c2ccc(C(F)(F)F)cc2)C1` (stereo not drawn) [Cpd. No. 44, N-((7-bromo-1-(4-(trifluoromethyl)phenyl)-1,2,3,4-tetrahydro-1,5-naphthyridin-3-yl)methyl)acetamide] the IC50 was less than 1000 nM.
